Assay results as given in patent publication US20030008012A1, “Composition for rectal delivery of an oxazolidinone antibacterial drug” (priority 2001, published 2003).

Assay: Linezolid concentration in blood plasma of beagle dogs after rectal administration of one suppository
Assay type: in vivo
Details: dog, other: rectal
Procedure: One 20 mg linezolid suppository prepared as above was rectally administered to each of four beagle dogs, and the concentration of linezolid in blood plasma of the dogs was determined at different times after administration, as presented in Table 2.
One 600 mg linezolid suppository prepared as above was rectally administered to each of four beagle dogs and the concentration of linezolid in blood plasma of the dogs was determined at different times after administration, as presented in Table 3.

[1] = 20 mg, Example 2 solution suppository, 20 mg linezolid, Dog 1 (15.2 kg)
[2] = 20 mg, Example 2 solution suppository, 20 mg linezolid, Dog 2 (13.7 kg)
[3] = 20 mg, Example 2 solution suppository, 20 mg linezolid, Dog 3 (10.5 kg)
[4] = 20 mg, Example 2 solution suppository, 20 mg linezolid, Dog 4 (12.2 kg)
[5] = 600 mg, Example 5 particulate dispersion suppository, 600 mg linezolid, Dog 1 (15.0 kg)
[6] = 600 mg, Example 5 particulate dispersion suppository, 600 mg linezolid, Dog 2 (13.4 g)
[7] = 600 mg, Example 5 particulate dispersion suppository, 600 mg linezolid, Dog 3 (10.1 kg)
[8] = 600 mg, Example 5 particulate dispersion suppository, 600 mg linezolid, Dog 4 (12.5 kg)

- concentration at 0.25 h [1]: 47.6 ng/mL
- concentration at 0.5 h [1]: 132 ng/mL
- concentration at 0.75 h [1]: 168 ng/mL
- concentration at 1 h [1]: 209 ng/mL
- concentration at 1.5 h [1]: 267 ng/mL
- concentration at 2 h [1]: 354 ng/mL
- concentration at 2.5 h [1]: 417 ng/mL
- concentration at 3 h [1]: 364 ng/mL
- concentration at 0.25 h [2]: 54.6 ng/mL
- concentration at 0.5 h [2]: 136 ng/mL
- concentration at 0.75 h [2]: 189 ng/mL
- concentration at 1 h [2]: 197 ng/mL
- concentration at 1.5 h [2]: 179 ng/mL
- concentration at 2 h [2]: 238 ng/mL
- concentration at 2.5 h [2]: 171 ng/mL
- concentration at 3 h [2]: 146 ng/mL
- concentration at 0.25 h [3]: 134 ng/mL
- concentration at 0.5 h [3]: 305 ng/mL
- concentration at 0.75 h [3]: 340 ng/mL
- concentration at 1 h [3]: 388 ng/mL
- concentration at 1.5 h [3]: 423 ng/mL
- concentration at 2 h [3]: 351 ng/mL
- concentration at 2.5 h [3]: 331 ng/mL
- concentration at 3 h [3]: 317 ng/mL
- concentration at 0.25 h [4]: 80.7 ng/mL
- concentration at 0.5 h [4]: 204 ng/mL
- concentration at 0.75 h [4]: 291 ng/mL
- concentration at 1 h [4]: 394 ng/mL
- concentration at 1.5 h [4]: 532 ng/mL
- concentration at 2 h [4]: 548 ng/mL
- concentration at 2.5 h [4]: 550 ng/mL
- concentration at 3 h [4]: 556 ng/mL
- concentration at 0.25 h [5]: 1110 ng/mL
- concentration at 0.5 h [5]: 2250 ng/mL
- concentration at 0.75 h [5]: 3840 ng/mL
- concentration at 1 h [5]: 5010 ng/mL
- concentration at 1.5 h [5]: 6260 ng/mL
- concentration at 2 h [5]: 7230 ng/mL
- concentration at 2.5 h [5]: 7980 ng/mL
- concentration at 3 h [5]: 8480 ng/mL
- concentration at 0.25 h [6]: 770 ng/mL
- concentration at 0.5 h [6]: 1240 ng/mL
- concentration at 0.75 h [6]: 1940 ng/mL
- concentration at 1 h [6]: 2610 ng/mL
- concentration at 1.5 h [6]: 3490 ng/mL
- concentration at 2 h [6]: 3570 ng/mL
- concentration at 2.5 h [6]: 5010 ng/mL
- concentration at 3 h [6]: 4730 ng/mL
- concentration at 0.25 h [7]: 444 ng/mL
- concentration at 0.5 h [7]: 1110 ng/mL
- concentration at 0.75 h [7]: 1680 ng/mL
- concentration at 1 h [7]: 2540 ng/mL
- concentration at 1.5 h [7]: 3460 ng/mL
- concentration at 2 h [7]: 4840 ng/mL
- concentration at 2.5 h [7]: 5510 ng/mL
- concentration at 3 h [7]: 6570 ng/mL
- concentration at 0.25 h [8]: 1100 ng/mL
- concentration at 0.5 h [8]: 1720 ng/mL
- concentration at 0.75 h [8]: 1930 ng/mL
- concentration at 1 h [8]: 2640 ng/mL
- concentration at 1.5 h [8]: 4260 ng/mL
- concentration at 2 h [8]: 4810 ng/mL
- concentration at 2.5 h [8]: 6060 ng/mL
- concentration at 3 h [8]: 7480 ng/mL
Compound: CC(=O)NC[C@H]1CN(c2ccc(N3CCOCC3)c(F)c2)C(=O)O1 [Linezolid, (S)-N-[[3-[3-fluoro-4-(4-morpholinyl)phenyl]-2-oxo-5-oxazolidinyl]methyl]acetamide]
